Test results from US8772237B2, “Compositions and methods for counteracting effects of reactive oxygen species and free radicals” (Ischemix, Inc., priority 1999, dated 2014).
Ends that are not written are not given here.

System: transcription factor AP-1
Experiment: Electrophoretic mobility shift assay (EMSA) for AP-1 activation in primary rat neurons / cortical cultures
Type: cell-based
Protocol: Nuclear extracts for electrophoretic mobility shift assays (EMSAs) were prepared as described previously (Adams et al., J. Leukocyte Biol., 62: 865-873 (1997)) using 1.0-2.0×10^7 cells per sample. All buffers were freshly supplemented with dithiothreitol (DTT, 0.5 mM), protease inhibitors: PMSF (0.5 mM), chymostatin, peptstatin-A, aprotinin, antipain, leupeptin (each at 1 μg/ml), and phosphatase inhibitors: NaF (10 mM), ZnCl2 (1 mM), sodium orthovanadate (1 mM), and sodium pyrophosphate (5 mM). Aliquots of the final dialyzates were stored at −80° C. and discarded after use.
AP-1 transcription factor activation was assayed using an electrophoretic mobility shift assay (EMSA), as described by Adams et al., J. Leukoc. Biol., 62:865-873 (1997)). Cultures of primary rat neurons (Cornell-Bell et al., Cell Calcium, 12: 185-204 (1991)) were stimulated for 3 hours with various concentrations (0, 1, 10, 100 ng/ml) of peptide CMX-9236. Nuclear extracts prepared as described above were separated by gel electophoresis on non-denaturing gels and subjected to the EMSA procedure. This EMSA used an AP-1 synthetic duplex probe (Angel, P., 1987, Cell 49:729-739) having the sequence 5′-[…] (SEQ ID NO:33) and its antisense copy (complement strand), which were end-labeled with P^32 using polynucleotide kinase and (γ-P^32)-ATP. For the EMSA reaction, the labeled probe (0.5 pmol) was mixed with 3 μg of nuclear extract protein in a solution containing 10 mM Tris-HCl, pH 7.5, 50 mM NaCl, 1 mM EDTA, 1 mM dithiothreitol, 5% glycerol, 0.02% β-mercaptoethanol, and 1 μg of poly-dI/dC (Pharmacia). Reaction mixtures were incubated at 25° C. for 20 minutes to allow complete complex formation by the duplex with its appropriate AP-1 protein. The mixture was then electrophoresed under non-denaturing conditions through 4% polyacrylamide gels in 0.5×TBE buffer (45 mM Trisma base, 45 mM boric acid, 1 mM EDTA). The gels were dried on 3 mm paper. Bands were visualized by autoradiography at −80° C. with one intensifying screen and quantified by laser densitometry. The upregulation of AP-1 and the activation and upregulation process of AP-1 was compared to control cultures.
Primary cortical cell cultures were grown to confluence and used in in vitro cultures for determining the effects of various representative peptide compounds on upregulation of AP-1. […] Extracts were prepared from the nuclei isolated from the primary culture homogenates, purified, and analyzed for the presence of specific transcription factors using the electrophoretic mobility shift assay (EMSA) method. The binding of ^32P-labeled duplex DNA probes specific for activator protein-1 (AP-1) or nuclear factor κB (NF-κB) was analyzed and quantified by autoradiography. After a 3-hour incubation of the cultures with 1 ng/ml of the peptide CMX-9236 there was a 15-fold increase of AP-1 relative to […] control cultures. […] Thus, a small peptide compound that is less than 20 amino acids long can simulate the properties of large growth factors such as NGF and BDNF, which exist as dimers of protein chains with molecular weights of 13,259 and 13,500, respectively.

fold-increase of AP-1 (binding of DNA duplex probe) (100 ng/ml, 3 hours): 60 fold
Sequence: KKDGDGDFAIDAPE [CMX-9236, uncapped peptide]
fold-increase of AP-1 (1 ng/ml, 3-hour incubation): 15 fold
